Experimental data reported in PMC4741576 (Oncotarget, 2015).

Assays:
CD49d = CD49d surface expression in leukemic blasts from xenografted mice; format: in vivo, human; conditions: bone marrow, spleen and peripheral blood blasts, compared to control; differences not statistically significant
Description: (§1) Leukemic blasts (1 × 10^6 per mouse) were then secondarily transplanted into sublethally irradiated NSG mice for treatment experiments. […] After sacrifice, cells were isolated from bone marrow, spleen, and peripheral blood; counted; and stained with anti-human FACS antibodies (CD19- FITC, CD45-PE/APC, 12G5 CXCR4-APC, 1D9 CXCR4-PE, CXCR7-PerCP, and/or CD49d-PE-Cy5).

[1] = overall health of xenografted mice; conditions: 3 consecutive days for 2 weeks; POL5551 5 mg/kg s.c., cytarabine 200 mg/kg i.p.
Description: CXCR4 antagonism has been advanced clinically in acute leukemia. Trials of plerixafor as a chemosensitizing agent have been completed in adults with relapsed/refractory and newly-diagnosed AML, [33] and children with relapsed/refractory acute leukemias. One concern about CXCR4 antagonism is that mobilized hematopoietic stem cells will become more susceptible to chemotherapy and lead to delayed blood count recovery.
as §1

[2] = system: infant MLL-R ALL primary samples; assay: xenograft of infant MLL-R ALL, leukemic burden; format: in vivo, human blasts in NSG mice
Description: Therefore, we transplanted primary samples from infants with MLL-R ALL. […] To make our xenograft model even more aggressive, we transplanted cells that had already been passaged once through NOD/SCID/γc^null (NSG) mice in order to select for leukemia-initiating cells from the cryopreserved primary samples. We performed this experiment using 4 different infant MLL-R ALL primary samples (Figure 6A).
Mice were sacrificed at the start of week 4, or 4 days after the last treatment. […] Overall leukemic burden was quantified by averaging the percentage of blasts (human CD45+ and CD19+) detected in the bone marrow, spleen, and peripheral blood. Quantification of leukemic blasts was performed in duplicate.
Cryopreserved primary ALL cells were thawed, counted (TC10 Automated Cell Counter, BioRad, Hercules, CA), and resuspended in cold PBS. Adult NSG mice (Jackson Laboratories, Bar Harbor, ME) were sublethally irradiated (200 centiGray) 4 hours prior to the transplantation of 1 × 10^6 viable cells via tail vein injection. Mice were started on Uniprim medicated feed (Harlan Laboratories, Frederick, MD) ≥ 24 hours prior to transplantation in order to decrease opportunistic infections. Peripheral blood was collected via cheek venipuncture 4 to 6 weeks post-transplant and analyzed by FACS after staining with anti-human CD19-FITC and anti-human CD45-PE (BD Pharmingen). Leukemic blasts were defined as cells that co-expressed human CD45 and human CD19. Mice were sacrificed 2 to 4 weeks post-engraftment and leukemic cells were harvested from the spleen and bone marrow.
as §1

CXCR4 = conditions: vs. control
Description: as §1

CXCR7 = conditions: ALL; cited from earlier work
Description: (§2) CXCR7 is a second receptor for SDF-1α, [24, 25] while VLA-4 is an integrin, [26] and both are important in the interaction of leukemia cells with the bone marrow stromal microenvironment.

surface CXCR4 [3] = conditions: leukemic blasts; cited from earlier work
surface CXCR4 [4] = conditions: leukemic blasts; cited from earlier work; remark: listed apart in the source
[5] = system: pediatric ALL and acute myeloid leukemia (AML); conditions: cited from earlier work
Description: ALL is the most common pediatric malignancy. […] However, children and young adults with high-risk and relapsed/refractory ALL continue to have suboptimal outcomes. […] Specifically, interaction between the cell surface receptor CXCR4 ...

surface CXCR4 [6] = target: T1, surface CXCR4 (Homo sapiens, UniProt P61073); assay: 12G5 anti-CXCR4 antibody binding (FACS), ALL cell lines
T1 construct: endogenous in cells; host or cells: pediatric ALL cell lines (pre-B: Nalm-6, HB-1119 and others; T cell: Jurkat, CCRF-CEM-1301 and others)
T1 sequence (P61073 whole entry): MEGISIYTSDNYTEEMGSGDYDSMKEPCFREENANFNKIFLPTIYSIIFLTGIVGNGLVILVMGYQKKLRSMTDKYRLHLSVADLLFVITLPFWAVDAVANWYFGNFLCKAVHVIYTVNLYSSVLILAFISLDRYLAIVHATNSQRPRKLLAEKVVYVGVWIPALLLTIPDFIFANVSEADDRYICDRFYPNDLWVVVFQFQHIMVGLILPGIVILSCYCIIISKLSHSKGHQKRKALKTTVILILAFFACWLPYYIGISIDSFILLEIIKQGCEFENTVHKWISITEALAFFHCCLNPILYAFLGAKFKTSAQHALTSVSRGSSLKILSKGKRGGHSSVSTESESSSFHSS
Description: We then harvested cells and measured binding of the 12G5 anti-CXCR4 antibody, which attaches to the SDF-1α binding site of CXCR4, by FACS as a marker for surface CXCR4 expression.
12G5 anti-CXCR4 antibody binding was measured by FACS and MFI were normalized to control at each time point.
Conversely, 1D9 antibody binding is a measure of total surface CXCR4. […] At multiple time points, we measured binding to surface CXCR4 by flow cytometry using 3 anti-CXCR4 antibodies: 12G5, 1D9, and 2B11.
Cells were harvested at multiple time points, washed with ice-cold wash buffer (PBS with 0.5% bovine serum albumin, Sigma-Aldrich), stained with antibodies at manufacturer-recommended concentrations (12G5 anti-human CD184 [CXCR4]-APC, eBioscience, San Diego, CA; 12G5 anti-human CD184-PE-Cy5, BD Pharmingen, San Diego, CA; 1D9 anti-human CD184-PE, BD Pharmingen; 2B11 anti-mouse CD184-APC, eBioscience; anti-human CXCR7- PerCP, R&D Systems, Minneapolis, MN), washed, fixed with 1% paraformaldehyde (VWR, Radnor, PA), and stored at 4°C in the dark until analysis on a FACSCalibur (BD Biosciences, San Jose, CA). A live gate was drawn using FlowJo (TreeStar, Ashland, OR) according to forward/side scatter properties and used to calculate the MFI. MFI were normalized to the isotype control (IC) MFI at each time point and then normalized to the MFI:IC ratio of control-treated (0 nM) samples.

acute leukemias [7] = conditions: cited from earlier work
Description: CXCR4 antagonism has been advanced clinically in acute leukemia. Trials of plerixafor as a chemosensitizing agent have been completed in adults with relapsed/refractory and newly-diagnosed AML, [33] and children with relapsed/refractory acute leukemias. One concern about CXCR4 antagonism is that mobilized hematopoietic stem cells will become more susceptible to chemotherapy and lead to delayed blood count recovery. […] With regards to ...

acute leukemias [8] = conditions: several preclinical studies; cited from earlier work
Description: Efforts to improve outcomes in pediatric ALL have largely been focused on factors intrinsic to the leukemic blast, such as genetic mutations or alterations in gene expression. However, it is likely that survival signals from the bone marrow microenvironment also contribute to treatment failure and relapse. As such, many groups have studied CXCR4 antagonism as a means to improve outcomes in acute leukemias. […] Our paper is ...

ERK1/2 = assay: SDF-1α-induced phosphorylation of ERK1/2 (PhosphoFACS); format: cell-based, human; conditions: control-treated cells, SDF-1α 75 ng/mL for 15 minutes
Description: as §2

## Nc1ccn([C@@H]2O[C@H](CO)[C@@H](O)[C@@H]2O)c(=O)n1 [cytarabine]
CD49d
  CD49d mean fluorescence index (MFI): increased
[1]
  appearance of mice at sacrifice: thin and hunched at sacrifice
[2]; 3 consecutive days for 2 weeks, vs. vehicle control
  overall leukemic burden compared to vehicle control: significantly decreased total leukemic burden compared to vehicle control
[2]; average of bone marrow, spleen, peripheral blood, 4 primary samples pooled, n = 5 mice/cohort, POL5551 5 mg/kg s.c., cytarabine 200 mg/kg i.p., 3 consecutive days for 2 weeks, vehicle control 56.2%
  overall leukemic burden: 36.7%
[2]; bone marrow, cytarabine 200 mg/kg i.p., vs. vehicle control
  leukemic burden in bone marrow compared to vehicle control: did not lead to a significant decrease in leukemic burden compared to vehicle control
[2]; bone marrow, POL5551 5 mg/kg s.c., cytarabine 200 mg/kg i.p., 3 consecutive days for 2 weeks
  leukemic burden, bone marrow: 49.5%
[2]; peripheral blood, POL5551 5 mg/kg s.c., cytarabine 200 mg/kg i.p., 3 consecutive days for 2 weeks
  leukemic burden, blood: 29.6%
[2]; spleen, POL5551 5 mg/kg s.c., cytarabine 200 mg/kg i.p., 3 consecutive days for 2 weeks
  leukemic burden, spleen: 30.8%
CXCR4
  12G5 antibody binding in blasts from bone marrow and peripheral blood: moderate but non-significant decrease in 12G5 antibody binding

## c1cc(CN2CCCNCCNCCCNCC2)ccc1CN1CCCNCCNCCCNCC1 [plerixafor]
CXCR7
  surface expression of CXCR7: increase in surface expression of CXCR7
Surface CXCR4 [3]
  1D9 antibody binding to surface CXCR4: increase in 1D9 antibody binding
Surface CXCR4 [4]
  12G5 antibody binding to surface CXCR4: decrease in 12G5 antibody binding
[5]
  stromal protection and chemotherapy resistance: could reverse stromal protection and chemotherapy resistance
Surface CXCR4 [6]; ALL cell lines, 48-hour time course
  12G5 antibody binding, potency relative to POL5551 / plerixafor: several-fold higher concentrations of plerixafor were needed to achieve similar levels of reduction of 12G5 antibody binding
Surface CXCR4 [6]; NALM-6, read-out: maximum inhibition of 12G5 antibody binding
  inhibition at 0.04 µM: ~20%
Acute leukemias [7]; phase 1/2 trials of plerixafor
  prolonged count recovery: none of them reported prolonged count recovery
Acute leukemias [7]; phase 1/2 trials, adults with AML, children with relapsed/refractory acute leukemias
  tolerability and efficacy as a chemosensitizing agent: showed tolerability and efficacy of plerixafor as a chemosensitizing agent
Acute leukemias [7]; plerixafor trials
  development of extramedullary disease after treatment: none of the aforementioned trials reported the development of extramedullary disease after treatment
Acute leukemias [8]
  in vivo sensitivity to anti-leukemic therapies: enhances in vivo sensitivity to anti-leukemic therapies

## SDF-1α
ERK1/2
  ERK1/2 phosphorylation, effect of SDF-1α: increase in phosphorylation of ERK1/2
